A word on the MIC: it is the lowest concentration that inhibits growth of the organism. A word on the IC50: it is the concentration that gives 50% inhibition.

≈ marks a conversion by molar mass, not a printed value. Where “and” joins values, the source holds several entries; their conditions need not be identical. Equal values may be shown once. Read-outs that look alike come from different tables or passages of the source. Where only a bound is given, the exact number is not on record here.

The subject of one assay is E. coli (ATCC 25922). As to the kind of experiment: Antibacterial susceptibility testing, MIC by broth microdilution, alone or with polymyxin B. It is filed as cell-based, Escherichia coli. Particulars: for MIC: Escherichia coli, read-out: MIC against E. coli; for MIC against E. coli with polymyxin B: with polymyxin B at sub-inhibitory concentration (half of the MIC, 0.49 µg/mL), permeabilized E. coli. As to the method: Overnight subcultures of the test organism carried out on plate count agar medium (PCA) were used.
After 24 h incubation at 37 °C with continuous shaking, absorbance was measured with an iMark micro-plate reader (Bio-Rad, Hercules, CA, USA) at 655 nm. Compound 1 was dissolved in DMSO, while compounds 4 and 6 were dissolved in ethanol or acetonitrile (ACN), respectively. Negative controls containing dissolution solvents at a final concentration of 2% or polymyxin B at 0.49 µg/mL were simultaneously carried out, and the growth was compared to the viability control, which contained only a culture medium. […] The large size of this glycopeptide antibiotic avoids its entrance into Gram-negative bacteria, while the addition of polymyxin B overcomes this inconvenience.
(In general: Dilution methods test growth across graded concentrations, often in twofold steps.)

The next assay has as its target T1, Escherichia coli MurA (Escherichia coli, UniProt P0A749).
T1 construct: made in house; host or cells: E. coli
In words: MurA inhibition, colorimetric malachite green method. It is filed as biochemical. Particulars: for remaining activity at 100 µM: 10 min, residual activity at 100 µM, read-out: RA % Escherichia coli MurA. As to the method:
(§1) Polymyxin, UDP-GlcNAc, D-Ala-D-Ala, PEP, ATP and Hepes were purchased from Sigma-Aldrich Co. (St Louis, MO, USA). UDP-MurNAc-L-Ala-D-Glu-m-DAP was obtained from BACWAN facility, School of Life Sciences, The University of Warwick, UK. MurA from E. coli and S. aureus were recombinant, expressed in E. coli, while MurF from E. coli and S. aureus were recombinant expressed in E. coli.
(§2) MurA inhibition was determined with the colorimetric malachite green method in which the release of orthophosphate generated during the reaction is measured. Briefly, 2.5 µL of each tested compound previously dissolved in DMSO at a concentration of 100 µM, were added in duplicate to 50 µL of the reaction mixture containing 50 mM HEPES pH 7.8, 0.005% Triton X-114, 200 µM UDP-GlcNAc, 100 µM PEP and purified MurA (200 nM) diluted in 50 mM Hepes at pH 7.8. The 50 µL reaction mixture for MurF inhibitory assay contained 50 mM Hepes pH 8.0, 50 mM MgCl2, 0.005% Triton X-114, 600 µM D-Ala-D-Ala, 100 µM UDP-MurNAc-L-Ala-D-Glu-m-DAP, 500 µM ATP and purified MurF (8 nM). Time-dependent inhibition assays were also performed. MurA was preincubated with substrate UDP-GlcNAc and target compounds for 10 min at 37 °C, and then the reaction was started by the addition of the second substrate PEP, resulting in a mixture with a final volume of 50 µL as above described. MurF was preincubated with compounds for 10 min at 37 °C, and the reaction was started by the addition of the above-mentioned substrates to get a mixture with a final volume of 50 µL, as already described. In both experiments, after incubation for 15 min at 37 °C, the reaction was stopped by adding Biomol® reagent (100 µL, Enzo Life Sciences, Inc., Farmingdale, NY, USA). The absorbance was measured at 650 nm after 5 min in a microplate reader (Synergy H4). The final concentration of DMSO in the reaction mixture was 5% (v/v). Fosfomycin was used as a reference in MurA assay. The percentage of RA was calculated in comparison to negative controls containing only 5% DMSO. […] The results are expressed as mean ± standard error.

For assay [1], the target named is T2, Staphylococcus aureus MurA (Staphylococcus aureus, UniProt Q931H5).
T2 construct: made in house; host or cells: E. coli
T2 sequence (Q931H5 1-421): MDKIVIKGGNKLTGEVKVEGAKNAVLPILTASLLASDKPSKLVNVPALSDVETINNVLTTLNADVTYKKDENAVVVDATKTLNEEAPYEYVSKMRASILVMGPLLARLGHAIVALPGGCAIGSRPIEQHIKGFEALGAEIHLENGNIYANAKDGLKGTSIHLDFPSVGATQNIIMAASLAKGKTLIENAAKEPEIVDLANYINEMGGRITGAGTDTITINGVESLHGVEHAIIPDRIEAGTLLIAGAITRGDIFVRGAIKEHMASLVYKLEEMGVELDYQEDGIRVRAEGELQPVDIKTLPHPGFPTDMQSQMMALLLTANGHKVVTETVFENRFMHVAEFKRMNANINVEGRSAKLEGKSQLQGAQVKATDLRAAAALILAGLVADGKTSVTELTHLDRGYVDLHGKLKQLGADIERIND
In words: biochemical. As to conditions: for remaining activity at 100 µM: 10 min. The protocol: as §1
as §2, with “Briefly, 2.5 µL of each tested compound previously dissolved in DMSO at a concentration of 100 µM, were added in duplicate to 50 µL of the reaction mixture containing 50 mM HEPES pH 7.8, 0.005% Triton X-114, 200 µM UDP-GlcNAc, 100 µM PEP and purified MurA (200 nM) diluted in 50 mM Hepes at pH 7.8. The 50 µL reaction mixture for MurF inhibitory assay contained 50 mM Hepes pH 8.0, 50 mM MgCl2, 0.005% Triton X-114, 600 µM D-Ala-D-Ala, 100 µM UDP-MurNAc-L-Ala-D-Glu-m-DAP, 500 µM ATP and purified MurF (8 nM).” left out

Assay [2] concerns methicillin-sensitive and resistant Staphylococcus aureus (MSSA and MRSA). As to conditions: growth curves of treated MSSA and MRSA; cited from earlier work.
The mark [3] stands for this setting: ATCC25922, compound alone, 24 h, 37 °C, Mueller–Hinton broth.
The mark [4] stands for this setting: IC50 Escherichia coli MurA, time of preincubation: 10 min.
Setting [5] is: time of preincubation: 10 min, read-out: IC50 Staphylococcus aureus MurA (converted).
Setting [6] is: IC50 Staphylococcus aureus MurA, time of preincubation: 10 min.
Setting [7] is: time of preincubation: 10 min, read-out: IC50 Escherichia coli MurA (converted).
The mark [8] stands for this setting: residual activity at 100 µM, time of preincubation: 10 min, read-out: RA % Staphylococcus aureus MurA.

T1 sequence (P0A749 whole entry): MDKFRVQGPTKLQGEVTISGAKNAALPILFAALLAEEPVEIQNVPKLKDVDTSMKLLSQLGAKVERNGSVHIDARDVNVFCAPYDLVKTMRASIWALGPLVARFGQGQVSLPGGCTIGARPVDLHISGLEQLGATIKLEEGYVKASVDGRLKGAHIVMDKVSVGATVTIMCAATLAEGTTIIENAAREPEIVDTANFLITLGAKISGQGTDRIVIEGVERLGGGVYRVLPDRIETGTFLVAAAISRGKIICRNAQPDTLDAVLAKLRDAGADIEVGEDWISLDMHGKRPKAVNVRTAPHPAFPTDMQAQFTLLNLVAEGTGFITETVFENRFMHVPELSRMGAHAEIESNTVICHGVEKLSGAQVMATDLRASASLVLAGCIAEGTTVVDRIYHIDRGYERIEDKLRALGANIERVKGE

For the molecule `CC(C)c1cc2c3c(c1O)OC(=O)[C@@]31CCCC(C)(C)[C@@H]1CC2` [Compound 6, carnosic acid-γ-lactone], the minimal inhibitory concentration (MIC) with E. coli (ATCC 25922) (setting [3]) is above 250 µg/mL. In the assay on E. coli (ATCC 25922), the “MIC against E. coli with polymyxin B” value is 125 µg/mL. For the same molecule, the IC50 at Escherichia coli MurA (setting [4]) was 4.8 µM; in assay [1] (setting [5]), 7.9 µM.
As to `CC(C)c1cc2c(c(O)c1O)[C@@]1(C(=O)O)CCCC(C)(C)[C@@H]1CC2` [Compound 3, carnosic acid], the IC50 is 25 µM and 25.1 µM on Escherichia coli MurA (setting [4]); 12 µM and 12.3 µM in assay [1] (setting [6]).
For `CC(C)c1cc2c(c(O)c1O)[C@@]13CCCC(C)(C)[C@@H]1C[C@@H]2OC3=O` [Compound 1, carnosol], in the assay on E. coli (ATCC 25922) (setting [3]), the MIC is above 250 µg/mL. Also, the “MIC against E. coli with polymyxin B” value in the assay on E. coli (ATCC 25922) is 125 µg/mL. Also, the IC50 at Escherichia coli MurA (time of preincubation = 0 min, read-out: IC50 Escherichia coli MurA (converted)) is 66 µM; at Escherichia coli MurA (setting [7]), 2.8 µM; in assay [1] (time of preincubation = 0 min, read-out: IC50 Staphylococcus aureus MurA (converted)), 61 µM; in assay [1] (setting [5]), 1.1 µM.
As to `CN[C@H](CC(C)C)C(=O)N[C@H]1C(=O)N[C@@H](CC(N)=O)C(=O)N[C@H]2C(=O)N[C@H]3C(=O)N[C@H](C(=O)N[C@H](C(=O)O)c4cc(O)cc(O)c4-c4cc3ccc4O)[C@H](O)c3ccc(c(Cl)c3)Oc3cc2cc(c3O[C@@H]2O[C@H](CO)[C@@H](O)[C@H](O)[C@H]2O[C@H]2C[C@](C)(N)[C@H](O)[C@H](C)O2)Oc2ccc(cc2Cl)[C@H]1O` [Vancomycin, vancomycin, reference compound], in the assay on E. coli (ATCC 25922) (ATCC25922, 24 h), the MIC came to 250 µg/mL (≈ 173 µM). Further, in the assay with E. coli (ATCC 25922), the “MIC against E. coli with polymyxin B” value is recorded as 62.5 µg/mL.
With `CC(C)c1cc2c(cc1O)[C@@]1(C)CCC[C@@](C)(C(=O)O)[C@@H]1CC2` [Compound 9, 12-hydroxy-dehydroabietic acid], the concentration for half-maximal inhibition (IC50) was 49.4 µM on Escherichia coli MurA (setting [7]) and 55.2 µM in assay [1] (setting [6]).
For `COC(=O)[C@]1(C)CCC[C@]2(C)c3cc(O)c(/C(C)=N/O)cc3/C(=N/O)C[C@@H]12` [Compound 14], in assay [1] (setting [8]), the remaining activity at 100 µM lay within 72 to 100%.
The same measure, in the same setting: the result for `CC/C(=N\O)c1cc2c(cc1O)[C@@]1(C)CCC[C@@](C)(C(=O)OC)[C@@H]1CC2` [Compound 13] reads 72 to 100%.
`COC(=O)[C@]12CCCC(C)(C)[C@@H]1CCc1cc(C(C)C)c(O)c(O)c12` [Compound 4, 20-methyl carnosate]: the MIC in the assay with E. coli (ATCC 25922) (setting [3]) is above 250 µg/mL. In addition, the “MIC against E. coli with polymyxin B” value against E. coli (ATCC 25922) is 3.9 µg/mL. For the same molecule, the remaining activity at 100 µM on Escherichia coli MurA (time of preincubation: 10 min) lay within 0 to 28%; in assay [1] (read-out: RA % Staphylococcus aureus MurA, residual activity at 100 µM, time of preincubation: 10 min) it was 0 to 28%. Also, the IC50 on Escherichia coli MurA (IC50 Escherichia coli MurA, time of preincubation = 0 min) is 48 µM; at Escherichia coli MurA (setting [4]), 2.8 µM; in assay [1] (IC50 Staphylococcus aureus MurA, time of preincubation = 0 min), 67 µM; in assay [1] (setting [6]), 3.4 µM.
With `COC(=O)[C@]1(C)CCC[C@]2(C)c3cc(O)c(/C(C)=N/O)cc3CC[C@@H]12` [Compound 12], the “delay/reduction in the growth rate of MSSA and MRSA, until time” value in assay [2] is “up to 6 h”. For the same molecule, in assay [1] (setting [8]), the remaining activity at 100 µM was in the range of 72 to 100%.
Take `C[C@@H]1O[C@@H]1P(=O)(O)O` [fosfomycin, reference compound]: the remaining activity at 100 µM (at Escherichia coli MurA (time of preincubation: 10 min); in assay [1] (setting [8])) was 0% throughout. Also, the IC50 at Escherichia coli MurA (setting [4]) is 0.21 µM; in assay [1] (setting [5]), 0.3 µM.
With `CC(C)c1cc2c(c(O)c1O)[C@@]13CCCC(C)(C)[C@@H]1[C@H](OC3=O)[C@H]2O` [Compound 2, rosmanol], the concentration for half-maximal inhibition (IC50) at Escherichia coli MurA (setting [7]) was 12.9 µM; in assay [1] (setting [5]), 5.7 µM.

(Values after publication PMC8698320, “Inhibition of MurA Enzyme from Escherichia coli and Staphylococcus aureus by Diterpenes from Lepechinia meyenii and Their Synthetic Analogs” (Antibiotics, 2021).)
